Measured values: the supplement of paper PMC10627819

Columns and labels:
B. subtilis 168 [1] = assay: fitness (endpoint OD595 vs no drug) (fraction); higher = more growth
How it was run: (§1)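 With the first reading as background, OD595 was measured every 30 min for 14 h in 384-well plates kept at 37 °C and inoculated at OD595 0.01. TSB, LB Lennox or CY was the medium. Fitness is the optical density at the transition into stationary phase divided by the robust mean of no-drug control wells, with a cap of 1.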

S. aureus Newman [2] = assay: as above
How it was run: as §1

S. pneumoniae D39V [3] = assay: as above
How it was run: as §1

B. subtilis 168 [4] = assay: Bliss interaction score (quartile over a dose matrix) (fitness difference); higher = more antagonism (negative = synergy)
How it was run: (§2)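 Growth was read as OD595 when cultures entered stationary phase, and each value was divided by the plate's robust no-drug mean and capped at 1. This normalised ratio is the fitness value, and fitness for each single drug came from the combination data. The Bliss score subtracts the expected fitness, taken as the product, from the observed fitness and is given as quartiles across technical, biological and donor/recipient replicates.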

S. aureus DSM 20231 = assay: as above
How it was run: as §2

S. aureus Newman [5] = assay: as above
How it was run: as §2

S. pneumoniae D39V [6] = assay: as above
How it was run: as §2
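For Bliss interaction score (quartile over a dose matrix) in this document: first quartile when negative (synergy) and third quartile when positive (antagonism).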
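For fitness (endpoint OD595 vs no drug) in this document: OD595 on entry to stationary phase over no-drug wells; at most 1.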

CO/N=C(\C(=O)N[C@@H]1C(=O)N2C(C(=O)O)=C(COC(C)=O)CS[C@H]12)c1csc(N)n1 [Cefotaxime] + CN(C)c1cc(NC(=O)CNC(C)(C)C)c(O)c2c1C[C@H]1C[C@H]3[C@H](N(C)C)C(O)=C(C(N)=O)C(=O)[C@@]3(O)C(O)=C1C2=O [Tigecycline]
fitness, one replicate
Conditions | partner 0.039 µg/mL | partner 0.078 µg/mL | partner 0.125 µg/mL | partner 0.156 µg/mL | partner 0.25 µg/mL | partner 0.5 µg/mL
B. subtilis 168 [1], first compound 0.00775 µg/mL | 0.83 | 0.784 | – | 0.811 | – | –
B. subtilis 168 [1], first compound 0.0155 µg/mL | 0.696 | 0.677 | – | 0.621 | – | –
B. subtilis 168 [1], first compound 0.031 µg/mL | 0.476 | 0.528 | – | 0.589 | – | –
B. subtilis 168 [1], first compound 0.0625 µg/mL | – | – | 0.623 | – | 0.513 | 0.573
B. subtilis 168 [1], first compound 0.125 µg/mL | – | – | 0.457 | – | 0.4 | 0.406
B. subtilis 168 [1], first compound 0.25 µg/mL | – | – | 0.307 | – | 0.237 | 0.252
S. aureus Newman [2], first compound 0.039 µg/mL | 0.709 | 0.781 | – | 0.776 | – | –
S. aureus Newman [2], first compound 0.625 µg/mL | 0.0125 | 0.0197 | – | 0.0212 | – | –
S. aureus Newman [2], first compound 1.25 µg/mL | 0.0613 | 0.0298 | – | 0.023 | – | –
S. aureus Newman [2], first compound 2.5 µg/mL | 0.0425 | 0.0445 | – | 0.0375 | – | –

Conditions | fitness
B. subtilis 168 [1], first compound 0.5 µg/mL, partner 0.039 µg/mL | 0.231
B. subtilis 168 [1], first compound 0.5 µg/mL, partner 0.078 µg/mL | 0.198
B. subtilis 168 [1], first compound 0.5 µg/mL, partner 0.156 µg/mL | 0.234
B. subtilis 168 [1], first compound 1 µg/mL, partner 0.039 µg/mL | 0.0778
B. subtilis 168 [1], first compound 1 µg/mL, partner 0.078 µg/mL | 0.092
B. subtilis 168 [1], first compound 1 µg/mL, partner 0.156 µg/mL | 0.109
B. subtilis 168 [1], first compound 2 µg/mL, partner 0.039 µg/mL | 0.0602
B. subtilis 168 [1], first compound 2 µg/mL, partner 0.078 µg/mL | 0.0925
B. subtilis 168 [1], first compound 2 µg/mL, partner 0.156 µg/mL | 0.101
S. aureus Newman [2], first compound 0.078 µg/mL, partner 0.039 µg/mL | 0.706
S. aureus Newman [2], first compound 0.078 µg/mL, partner 0.078 µg/mL | 0.777
S. aureus Newman [2], first compound 0.078 µg/mL, partner 0.156 µg/mL | 0.767
S. aureus Newman [2], first compound 0.156 µg/mL, partner 0.039 µg/mL | 0.655
S. aureus Newman [2], first compound 0.156 µg/mL, partner 0.078 µg/mL | 0.701
S. aureus Newman [2], first compound 0.156 µg/mL, partner 0.156 µg/mL | 0.714
S. aureus Newman [2], first compound 0.312 µg/mL, partner 0.039 µg/mL | 0.427
S. aureus Newman [2], first compound 0.312 µg/mL, partner 0.078 µg/mL | 0.434
S. aureus Newman [2], first compound 0.312 µg/mL, partner 0.156 µg/mL | 0.422
S. pneumoniae D39V [3], first compound 0.0018 µg/mL, partner 0.325 µg/mL | 0.978
S. pneumoniae D39V [3], first compound 0.0018 µg/mL, partner 0.65 µg/mL | 0.936
S. pneumoniae D39V [3], first compound 0.0018 µg/mL, partner 1.3 µg/mL | 0.993
S. pneumoniae D39V [3], first compound 0.0018 µg/mL, partner 2.6 µg/mL | 0.92
S. pneumoniae D39V [3], first compound 0.0035 µg/mL, partner 0.325 µg/mL | 0.957
S. pneumoniae D39V [3], first compound 0.0035 µg/mL, partner 0.65 µg/mL | 0.903
S. pneumoniae D39V [3], first compound 0.0035 µg/mL, partner 1.3 µg/mL | 0.954
S. pneumoniae D39V [3], first compound 0.0035 µg/mL, partner 2.6 µg/mL | 0.88
S. pneumoniae D39V [3], first compound 0.007 µg/mL, partner 0.325 µg/mL | 0.918
S. pneumoniae D39V [3], first compound 0.007 µg/mL, partner 0.65 µg/mL | 0.849
S. pneumoniae D39V [3], first compound 0.007 µg/mL, partner 1.3 µg/mL | 0.896
S. pneumoniae D39V [3], first compound 0.007 µg/mL, partner 2.6 µg/mL | 0.774

Conditions | Bliss interaction score
B. subtilis 168 [4] | 0.0544
S. aureus DSM 20231 | 0.0485
S. aureus Newman [5] | -0.0426
S. pneumoniae D39V [6] | -0.0363

CO/N=C(\C(=O)N[C@@H]1C(=O)N2C(C(=O)O)=C(COC(C)=O)CS[C@H]12)c1csc(N)n1 [Cefotaxime] + CN[C@@H]1[C@H](O[C@H]2[C@H](O[C@H]3[C@H](O)[C@@H](O)[C@H](N=C(N)N)[C@@H](O)[C@@H]3N=C(N)N)O[C@@H](C)[C@]2(O)C=O)O[C@@H](CO)[C@H](O)[C@H]1O [Streptomycin]
fitness, one replicate
Conditions | first compound 0.0018 µg/mL | first compound 0.0035 µg/mL | first compound 0.007 µg/mL | first compound 0.00775 µg/mL | first compound 0.0155 µg/mL | first compound 0.031 µg/mL
B. subtilis 168 [1], partner 2 µg/mL | – | – | – | 0.784 | 0.492 | 0.414
B. subtilis 168 [1], partner 4 µg/mL | – | – | – | 0.0757 | 0.0218 | 0.0306
B. subtilis 168 [1], partner 8 µg/mL | – | – | – | 0.0214 | 0.0302 | 0.0308
S. pneumoniae D39V [3], partner 16 µg/mL | 0.92 | 0.881 | 0.654 | – | – | –

fitness
Conditions | partner 1 µg/mL | partner 2 µg/mL | partner 4 µg/mL | partner 8 µg/mL
B. subtilis 168 [1], first compound 0.5 µg/mL | – | 0.0795 | 0.043 | 0.0401
B. subtilis 168 [1], first compound 1 µg/mL | – | 0.0611 | 0.0445 | 0.0309
B. subtilis 168 [1], first compound 2 µg/mL | – | 0.061 | 0.048 | 0.0478
S. aureus Newman [2], first compound 0.078 µg/mL | 0.761 | 0.757 | 0.72 | –
S. aureus Newman [2], first compound 0.156 µg/mL | 0.589 | 0.589 | 0.474 | –
S. aureus Newman [2], first compound 0.312 µg/mL | 0.382 | 0.29 | 0.155 | –
S. aureus Newman [2], first compound 0.625 µg/mL | 0.114 | 0.0719 | 0.0326 | –
S. aureus Newman [2], first compound 1.25 µg/mL | 0.0262 | 0.0178 | 0.0244 | –
S. aureus Newman [2], first compound 2.5 µg/mL | 0.0379 | 0.0307 | 0.0187 | –
S. pneumoniae D39V [3], first compound 0.0018 µg/mL | – | 0.966 | 0.996 | 0.964
S. pneumoniae D39V [3], first compound 0.0035 µg/mL | – | 0.945 | 0.974 | 0.963
S. pneumoniae D39V [3], first compound 0.007 µg/mL | – | 0.787 | 0.822 | 0.846

Conditions | Bliss interaction score
B. subtilis 168 [4] | -0.105
S. aureus DSM 20231 | -0.0464
S. aureus Newman [5] | -0.0376
S. pneumoniae D39V [6] | 0.0714
